According to patent US5571820A, “Heterocyclic compound” (Taisho Pharmaceutical Co., Ltd., priority 1992, dated 1996):

How the values were obtained:
serotonin 4 receptor [1] = target: T1, serotonin 4 receptor (Cavia porcellus, UniProt O70528); test: Serotonin 4 receptor stimulating activity: twitch responses of electrically stimulated ileum longitudinal muscle strips; type: cell-based, guinea pig (Hartley); details: for EC50: twitch responses, guinea pig ileum longitudinal muscle strips, cumulative additions of agonist, read-out: ED50 of the serotonin 4 receptor stimulating activity
T1 construct: from tissue; host or cells: ileum longitudinal muscle strips of Hartley guinea pig
T1 sequence (O70528 whole entry): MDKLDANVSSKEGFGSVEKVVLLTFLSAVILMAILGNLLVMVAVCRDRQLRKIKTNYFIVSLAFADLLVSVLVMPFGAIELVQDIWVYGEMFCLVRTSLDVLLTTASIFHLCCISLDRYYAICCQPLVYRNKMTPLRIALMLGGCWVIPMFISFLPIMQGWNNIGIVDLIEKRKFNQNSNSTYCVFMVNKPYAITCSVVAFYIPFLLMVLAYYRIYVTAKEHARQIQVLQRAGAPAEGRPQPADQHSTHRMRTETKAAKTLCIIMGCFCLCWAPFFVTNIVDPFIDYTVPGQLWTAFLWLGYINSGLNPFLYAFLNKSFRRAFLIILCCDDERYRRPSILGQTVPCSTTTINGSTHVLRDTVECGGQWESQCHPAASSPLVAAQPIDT
Description: Experiment 1. Serotonin 4 Receptor Stimulating Activity Compounds Tested
Twitch responses were examined in longitudinal muscle strips of guinea pig by a modification of the method described in The Journal of Pharmacology and Experimental Therapeutics, 252, 1378, 1990.
From Hartley guinea pigs, a section of ileum 25 cm in length and proximal to the ileocecal junction was removed. The longitudinal muscle strips obtained from two segments of ileum about 4 cm each in length were used for this experiment. The longitudinal muscle strips were suspended in Krebs' solution at 32° to 34° C. and bubbled with 95% O2 and 5% CO2 under a load of about 0.8 g. Twitch responses were recorded under electrical stimulation of 0.2 Hz, 1 msec pulse duration, using force displacement transducers. The longitudinal muscle strips, stimulated at supramaximal voltage, were allowed to equilibrate for about an hour. […] The test was carried out by exposing the strips to cumulative additions of agonist at least at 45-minute intervals.

[2] = tested on: gastrointestinal motor functions; details: Alimentary Pharmacology and Therapeutics, 6, 273, 1992; cited from earlier work
serotonin 4 receptor [3] = details: Alimentary Pharmacology and Therapeutics, 6, 273, 1992; cited from earlier work

Row | Compound | EC50 (serotonin 4 receptor [1]) [nM] | other results
1 | CCn1c(=O)c(C(=O)N[C@H]2C[C@H]3CC[C@@H](C2)N3C)cc2ccccc21 [Compound 2] | 138 | –
2 | COc1cc(N)c(Cl)cc1C(=O)NC1CCN2CCCC1C2 (centres unmarked) [renzapride] | – | effect on gastrointestinal motor functions and conditions [2]: accelerate gastrointestinal motor functions and improve gastrointestinal conditions; stimulation of serotonin 4 receptor (serotonin 4 receptor [3]): stimulants of serotonin 4 receptor
3 | CCCCn1c(=O)c(C(=O)N[C@H]2C[C@H]3CC[C@@H](C2)N3C)c(O)c2ccccc21 [Compound 7] | > 3000 | –
4 | CC(C)Cn1c(=O)c(C(=O)N[C@H]2C[C@H]3CC[C@@H](C2)N3C)cc2ccccc21 [Compound 5] | 974 | –
5 | NCCc1c[nH]c2ccc(O)cc12 [5-hydroxytryptamine (5-HT), 5-hydroxytryptamine] | – | enhancement of twitch responses (serotonin 4 receptor [1]; 10^-8 M): twitch responses were enhanced
6 | CN1[C@@H]2CC[C@H]1C[C@@H](NC(=O)c1cc3ccccc3[nH]c1=O)C2 [Compound 6] | > 3000 | –
7 | CCCCn1c(=O)c(C(=O)N[C@H]2C[C@H]3CC[C@@H](C2)N3C)cc2ccccc21 [Compound 4] | > 3000 | –
8 | COc1cc(N)c(Cl)cc1C(=O)NC1CCN(CCCOc2ccc(F)cc2)CC1OC (centres unmarked) [Cisapride] | – | effect on gastrointestinal motor functions and conditions [2]: accelerate gastrointestinal motor functions and improve gastrointestinal conditions; stimulation of serotonin 4 receptor (serotonin 4 receptor [3]): stimulants of serotonin 4 receptor
9 | CCCn1c(=O)c(C(=O)N[C@H]2C[C@H]3CC[C@@H](C2)N3C)cc2ccccc21 [Compound 3] | 413 | –
